Where two headings read alike, the source gives them in different places.
Columns and labels:
Assay in all cases: NCI anticancer screen, SRB assay, 48 h
Assay type in all cases: cell-based, human
[1] = tested on: ACHN (renal); conditions: Homo sapiens
Protocol: (§1) Some of biological activity studies were carried out at the National Cancer Institute (NCI), Maryland, USA.
(§2) The compounds were evaluated for anticancer activity against fifty three human cancer cells derived from nine cancer types (leukemia cell line, non-small-cell lung cell line, colon cell line, CNS cell line, melanoma cell line, ovarian cell line, prostate cell line, and breast cancer cell line) as shown in Table 1. For each compound, dose response curves for each cell line were measured at a minimum of five concentrations at 10 fold dilutions. A protocol of 48 h continuous drug exposure was used and a sulforhodamine B (SRB) protein assay was used to estimate cell viability or growth.

[2] = tested on: PC-3 (prostate); conditions: Homo sapiens
Protocol: as §1, §2

[3] = tested on: UACC-257 (melanoma); conditions: Homo sapiens
Protocol: as §1, §2

[4] = tested on: NCI-H226 (non-small cell lung); conditions: Homo sapiens
Protocol: as §1, §2

[5] = tested on: SK-OV-3 (ovarian); conditions: Homo sapiens
Protocol: as §1, §2

[6] = tested on: SF-268 (CNS); conditions: Homo sapiens
Protocol: as §1, §2

[7] = tested on: M14 (melanoma); conditions: Homo sapiens
Protocol: as §1, §2

[8] = tested on: COLO 205 (colon); conditions: Homo sapiens, COLO 205
Protocol: as §1, §2

[9] = tested on: UACC-62 (melanoma); conditions: Homo sapiens
Protocol: as §1, §2

[10] = tested on: OVCAR-8 (ovarian); conditions: Homo sapiens
Protocol: as §1, §2

[11] = tested on: OVCAR-5 (ovarian); conditions: Homo sapiens
Protocol: as §1, §2

[12] = tested on: SK-MEL-5 (melanoma); conditions: Homo sapiens
Protocol: as §1, §2

[13] = tested on: TK-10 (renal); conditions: Homo sapiens
Protocol: as §1, §2

[14] = tested on: 786-0 (renal); conditions: Homo sapiens
Protocol: as §1, §2

[15] = tested on: NCI/ADR-RES (ovarian); conditions: Homo sapiens, NCI/ADR-RES
Protocol: as §1, §2

[16] = tested on: OVCAR-3 (ovarian); conditions: Homo sapiens
Protocol: as §1, §2

[17] = tested on: MCF7 (breast); conditions: Homo sapiens
Protocol: as §1, §2

[18] = tested on: SW-620 (colon); conditions: Homo sapiens
Protocol: as §1, §2

[19] = tested on: LOX IMVI (melanoma); conditions: Homo sapiens
Protocol: as §1, §2

[20] = tested on: SF-295 (CNS); conditions: Homo sapiens
Protocol: as §1, §2

[21] = tested on: EKVX (non-small cell lung); conditions: Homo sapiens
Protocol: as §1, §2

[22] = tested on: SF-539 (CNS); conditions: Homo sapiens
Protocol: as §1, §2

[23] = tested on: RXF 393 (renal); conditions: Homo sapiens
Protocol: as §1, §2

[24] = tested on: SK-MEL-2 (melanoma); conditions: Homo sapiens
Protocol: as §1, §2

[25] = tested on: U251 (CNS); conditions: Homo sapiens
Protocol: as §1, §2

[26] = tested on: CAKI-1 (renal); conditions: Homo sapiens
Protocol: as §1, §2

[27] = tested on: NCI-H322M (non-small cell lung); conditions: Homo sapiens
Protocol: as §1, §2

[28] = tested on: RPMI-8226 (leukemia cell line); conditions: Homo sapiens
Protocol: as §1, §2

[29] = tested on: HT29 (colon); conditions: Homo sapiens
Protocol: as §1, §2

[30] = tested on: KM12 (colon); conditions: Homo sapiens
Protocol: as §1, §2

[31] = tested on: SN12C (renal); conditions: Homo sapiens, SN12C
Protocol: as §1, §2

[32] = tested on: BT-549 (breast); conditions: Homo sapiens
Protocol: as §1, §2

[33] = tested on: SNB-19 (CNS); conditions: Homo sapiens
Protocol: as §1, §2

[34] = tested on: MALME-3M (melanoma); conditions: Homo sapiens
Protocol: as §1, §2

[35] = tested on: NCI-H522 (non-small cell lung); conditions: Homo sapiens
Protocol: as §1, §2

[36] = tested on: A549/ATCC (non-small cell lung); conditions: Homo sapiens
Protocol: as §1, §2

[37] = 48 h exposure, SRB, read-out: GI50
[38] = read-out: pGI50 (-log of molar concentration causing 50% inhibition of net cell growth) (converted)
[39] = PC-3, read-out: pGI50 (-log of molar concentration causing 50% inhibition of net cell growth) (converted)
[40] = one prostate cancer cell line (PC-3), exposure at least 48 hrs, read-out: GI50
[41] = COLO205, read-out: pGI50 (-log of molar concentration causing 50% inhibition of net cell growth) (converted)
[42] = NCl/ADR-RES, 48 h exposure, SRB, read-out: GI50
[43] = RXF 393, 48 h exposure, SRB, read-out: GI50
[44] = RXF-393, read-out: pGI50 (-log of molar concentration causing 50% inhibition of net cell growth) (converted)
[45] = U-251, 48 h exposure, SRB, read-out: GI50
[46] = U-251, read-out: pGI50 (-log of molar concentration causing 50% inhibition of net cell growth) (converted)
[47] = HT-29, 48 h exposure, SRB, read-out: GI50
[48] = HT-29, read-out: pGI50 (-log of molar concentration causing 50% inhibition of net cell growth) (converted)
[49] = SN 12C, read-out: pGI50 (-log of molar concentration causing 50% inhibition of net cell growth) (converted)
[50] = Malme-3M, read-out: pGI50 (-log of molar concentration causing 50% inhibition of net cell growth) (converted)
[51] = MALME-3M, 48 h exposure, SRB, read-out: GI50

COc1cc(/C=C/C(=O)c2cccc(-n3cc(-c4ccccc4)[nH]c3=O)c2)ccc1O [3a, 1-3-[(E)-3-(4-hydroxy-3-methoxyphenyl)-2-propenoyl]phenyl-4-phenyl-2,3-dihydro-1H-2-imidazolone]
GI50 [1, 37]: 2500 nM | GI50 [1, 38]: 2510 nM | GI50 [2, 39]: 2510 nM | GI50 [2, 40]: 2520 nM | GI50 [3, 37]: 6810 nM | GI50 [3, 38]: 6760 nM | GI50 [4, 37]: 2600 nM | GI50 [4, 38]: 2570 nM | GI50 [5, 37]: 3760 nM | GI50 [5, 38]: 3800 nM | GI50 [6, 37]: 2070 nM | GI50 [6, 38]: 2090 nM | GI50 [7, 37]: 2610 nM | GI50 [7, 38]: 2630 nM | GI50 [8, 41]: 2190 nM | GI50 [8, 37]: 2210 nM | GI50 [9, 37]: 2010 nM | GI50 [9, 38]: 2000 nM | GI50 [10, 37]: 4110 nM | GI50 [10, 38]: 4070 nM | GI50 [11, 37]: 2040 nM | GI50 [11, 38]: 2040 nM | GI50 [12, 37]: 1590 nM | GI50 [12, 38]: 1580 nM | GI50 [13, 37]: 5290 nM | GI50 [13, 38]: 5250 nM | GI50 [14, 37]: 1350 nM | GI50 [14, 38]: 1350 nM | GI50 [15, 42]: 2920 nM | GI50 [15, 38]: 2950 nM | GI50 [16, 37]: 2290 nM | GI50 [16, 38]: 2290 nM | GI50 [17, 37]: 1550 nM | GI50 [17, 38]: 1550 nM | GI50 [18, 37]: 2290 nM | GI50 [18, 38]: 2290 nM | GI50 [19, 37]: 1880 nM | GI50 [19, 38]: 1860 nM | GI50 [20, 37]: 3040 nM | GI50 [20, 38]: 3020 nM | GI50 [21, 37]: 3900 nM | GI50 [21, 38]: 3890 nM | GI50 [22, 37]: 1910 nM | GI50 [22, 38]: 1910 nM | GI50 [23, 43]: 2270 nM | GI50 [23, 44]: 2290 nM | GI50 [24, 37]: 3650 nM | GI50 [24, 38]: 3630 nM | GI50 [25, 45]: 2110 nM | GI50 [25, 46]: 2090 nM | GI50 [26, 37]: 2190 nM | GI50 [26, 38]: 2190 nM | GI50 [27, 37]: 3390 nM | GI50 [27, 38]: 3390 nM | GI50 [28, 37]: 1670 nM | GI50 [28, 38]: 1660 nM | GI50 [29, 47]: 3770 nM | GI50 [29, 48]: 3800 nM | GI50 [30, 37]: 1610 nM | GI50 [30, 38]: 1620 nM | GI50 [31, 49]: 3310 nM | GI50 [31, 37]: 3310 nM | GI50 [32, 37]: 2780 nM | GI50 [32, 38]: 2750 nM | GI50 [33, 37]: 2960 nM | GI50 [33, 38]: 2950 nM | GI50 [34, 50]: 2690 nM | GI50 [34, 51]: 2670 nM | GI50 [35, 37]: 2360 nM | GI50 [35, 38]: 2340 nM | GI50 [36, 37]: 3850 nM | GI50 [36, 38]: 3890 nM

COc1cc(/C=C/C(=O)c2cccc(-n3cc(-c4ccccc4)[nH]c3=O)c2)cc(OC)c1OC [5a, 4-phenyl-1-3-[(E)-3-(3,4,5-trimethoxyphenyl)-2-propenoyl]phenyl-2,3-dihydro-1H-2-imidazolone]
GI50 [1, 37]: 1600 nM | GI50 [1, 38]: 1580 nM | GI50 [2, 39]: 3240 nM | GI50 [2, 40]: 3260 nM | GI50 [3, 37]: 1520 nM | GI50 [3, 38]: 1510 nM | GI50 [4, 37]: 14600 nM | GI50 [4, 38]: 14500 nM | GI50 [5, 37]: 3270 nM | GI50 [5, 38]: 3240 nM | GI50 [6, 37]: 1920 nM | GI50 [6, 38]: 1910 nM | GI50 [7, 37]: 1350 nM | GI50 [7, 38]: 1350 nM | GI50 [8, 41]: 1510 nM | GI50 [8, 37]: 1510 nM | GI50 [9, 37]: 1520 nM | GI50 [9, 38]: 1510 nM | GI50 [10, 37]: 1620 nM | GI50 [10, 38]: 1620 nM | GI50 [11, 37]: 1880 nM | GI50 [11, 38]: 1860 nM | GI50 [12, 37]: 1400 nM | GI50 [12, 38]: 1410 nM | GI50 [13, 37]: 3020 nM | GI50 [13, 38]: 3020 nM | GI50 [14, 37]: 1380 nM | GI50 [14, 38]: 1380 nM | GI50 [15, 42]: 1100 nM | GI50 [15, 38]: 1100 nM | GI50 [16, 37]: 1230 nM | GI50 [16, 38]: 1230 nM | GI50 [17, 37]: 310 nM | GI50 [17, 38]: 309 nM | GI50 [18, 37]: 390 nM | GI50 [18, 38]: 389 nM | GI50 [19, 37]: 480 nM | GI50 [19, 38]: 479 nM | GI50 [20, 37]: 1900 nM | GI50 [20, 38]: 1910 nM | GI50 [21, 37]: 2300 nM | GI50 [21, 38]: 2290 nM | GI50 [22, 37]: 1680 nM | GI50 [22, 38]: 1700 nM | GI50 [23, 43]: 1710 nM | GI50 [23, 44]: 1700 nM | GI50 [24, 37]: 2060 nM | GI50 [24, 38]: 2040 nM | GI50 [25, 45]: 630 nM | GI50 [25, 46]: 631 nM | GI50 [26, 37]: 1750 nM | GI50 [26, 38]: 1740 nM | GI50 [27, 37]: 2020 nM | GI50 [27, 38]: 2040 nM | GI50 [28, 37]: 620 nM | GI50 [28, 38]: 617 nM | GI50 [29, 47]: 660 nM | GI50 [29, 48]: 661 nM | GI50 [30, 37]: 1370 nM | GI50 [30, 38]: 1380 nM | GI50 [31, 49]: 2090 nM | GI50 [31, 37]: 2090 nM | GI50 [32, 37]: 1930 nM | GI50 [32, 38]: 1950 nM | GI50 [33, 37]: 2350 nM | GI50 [33, 38]: 2340 nM | GI50 [34, 50]: 1320 nM | GI50 [34, 51]: 1310 nM | GI50 [35, 37]: 950 nM | GI50 [35, 38]: 955 nM | GI50 [36, 37]: 4030 nM | GI50 [36, 38]: 4070 nM

— patent US8889874B2, “Imidazolone-chalcone derivatives as potential anticancer agent and process for the preparation thereof” (Council of Scientific and Industrial Research, priority 2010, dated 2014)
